PubChem BioAssay AID449764 (Southern Research Specialized Biocontainment Screening …, 2010)
Where a SMILES comes first, the peptide text is derived from it. [ ]: non-standard residue; d: D form. The star is where a group is joined. ξ: configuration not given here. ξF = NC(Cc1ccccc1)C(=O)O; Cbz = O=C(OCc1ccccc1)*

Test system: Mycobacterium tuberculosis H37Rv growth inhibition, no glycerol
Test: Confirmatory growth inhibition assay, Mycobacterium tuberculosis H37Rv, absence of glycerol (AID 449764);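 note: growth read after 7 days of incubation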
Settings: for IC90: measured here: IC90 growth inhibition

| SMILES | IC50 | IC90 |
| --- | --- | --- |
| CCc1c(C)sc2nc3c(C(=O)N4CCOCC4)cc(C(=O)c4cc(F)ccc4O)cn3c(=O)c12 | 82.2 µM | > 100 µM |
| CN=c1scc(-c2ccccc2Br)n1/N=C/c1ccc[nH]1 | 88.3 µM | 92.2 µM |
| Cc1c(C(=O)Nc2nc3ccccc3[nH]2)oc2c(Cl)cccc12 | 80.4 µM | > 100 µM |
| O=C(CCl)c1ccc2c(c1)CCN2C(=O)C1CCCCC1 | 41.5 µM | > 100 µM |
| Cc1ccc(NC(=O)c2cnc(SCC(=O)NCC3CCCO3)n(C)c2=O)cc1C (stereo not drawn) | 32 µM | > 100 µM |
| COC(=O)CSc1ncnc2c1sc1nc3c(cc12)COC(C)(C)C3 | 5.81 µM | 8.03 µM |
| COc1ccc(-c2oc3cccnc3c2/C=C/c2ccc(OC)c(OC)c2)cc1 | 56.6 µM | > 100 µM |
| N#CC1=C(c2ccccc2)/C(=C/c2ccccc2)OC1=O | 11.6 µM | 23.2 µM |
| COc1ccc(-c2csc(NC(C)c3nc4cc(Cl)c(N5CCCCC5)cc4n3CCCO)n2)cc1 (stereo not drawn) | 23 µM | 26.2 µM |
| CC1(C)CC(=O)C2=C(C1)OC(N)=C([N+](=O)[O-])C2c1ccc(C#N)s1 (stereo not drawn) | 79.7 µM | 97.7 µM |
| O=C(c1ccc([N+](=O)[O-])s1)N1CCN(c2ccc(C(F)(F)F)cn2)CC1 | 13.7 µM | 17.5 µM |
| CCN(CC)c1nc(NN)nc(Nc2ccc(C)c(Cl)c2)n1 | 5.84 µM | 6.79 µM |
| COc1cccc(COC(=O)c2ccc3c(=O)n4c(nc3c2)CCC4)c1OC | 28.2 µM | 59 µM |
| CCOC(=O)CNC(=O)C(Cc1ccccc1)NC(=O)OCc1ccccc1 (stereo not drawn) (Cbz-[ξF]-Gly-OEt) | 3.04 µM | 3.46 µM |
| O=C(Nc1ccc(OC(F)(F)F)cc1)c1ccc2c(c1)no[n+]2[O-] | 0.24 µM | 0.32 µM |
| COc1ccc(-c2ccc(OC)c([C@H]3[C@@H]4C=CCC[C@@]4(C)C(=O)N3Cc3ccccc3)c2)cc1OC | 89.5 µM | > 100 µM |
| C=CCc1c(C)nc(SC)nc1Nc1ccc(C(C)=O)cc1 | 34.6 µM | 52.4 µM |
| O=c1c(C=Nc2ccc(Oc3ccccc3)cc2)c[nH]n1-c1cccc(Cl)n1 | 23.3 µM | > 100 µM |
| O=c1cc(/C=C/c2ccccc2)oc2ccccc12 | 97.6 µM | > 100 µM |
| OC(CNCCc1ccc(C(F)(F)F)cc1)COC(c1ccccc1)c1ccccc1 (stereo not drawn) | 19.7 µM | 23.1 µM |
| CC(=O)c1cccc2c(O)c(C3=Nc4ccccc4C3=O)[nH]c12 | 11.5 µM | 12.9 µM |

| SMILES | IC50 | IC90 |
| --- | --- | --- |
| C[Se]C[C@@H](N)C(=O)O | 89.4 µM | 95.7 µM |
| S=c1nc2ccccc2c2nc(-c3ccccc3)[nH]n12 | 17.6 µM | 24.5 µM |
| COc1ccc(NCc2nc3ccccc3n2CCOc2ccccc2)cc1 | 69.5 µM | 88.6 µM |
| Cc1ccc(-n2cccc2C(=S)N=P(N(C)C)(N(C)C)N(C)C)cc1 | 24.6 µM | 26.1 µM |
| S=C(Nc1ccc(Cl)cc1)Nc1cccc2cnccc12 | 5.63 µM | 5.92 µM |
| COc1ccc(N2CCN(C(=O)c3ccc(CNc4c(N5CCOCC5)c(=O)c4=O)cc3)CC2)cc1 | 2.96 µM | 3.24 µM |
| S=C(NCCc1ccccc1)NN=C1CCCCCC1 | 45.8 µM | 50.1 µM |
| Cc1cc2cc(CNC(=O)NC3CCCCC3)ccc2[nH]1 | 36 µM | 53.7 µM |
| CCN1C(N(C)CCc2c[nH]c3ccccc23)=N[C@@H](c2cccc(C(F)(F)F)c2)C(C(=O)OC)=C1C | 22 µM | 25 µM |
| COc1cc(/C=C/c2cc[n+](C)cc2)ccc1OCC(=O)Nc1ccc(Cl)c(Cl)c1 | 25 µM | 28 µM |
| C/C(=N\NC(=O)c1ccc(O)cc1)c1ccc2c(c1)Nc1ccccc1S2 | 50.2 µM | 95.6 µM |
| O=C(Nc1ccc(Oc2cccc(C(F)(F)F)c2)nc1)c1cccs1 | 85.3 µM | > 100 µM |
| Cc1onc(-c2c(F)cccc2Cl)c1C(=O)O/N=C(\N)c1ccc([N+](=O)[O-])o1 | 14.4 µM | 27.6 µM |
| CNc1ccc2nc3ccccc3[n+](C)c2c1 | 1.16 µM | 1.68 µM |
| COc1ccc(-c2cc(-c3ccccc3)c(C#N)c(S(C)=O)n2)cc1 (stereo not drawn) | 91.8 µM | > 100 µM |
| COc1ccccc1N(C)S(=O)(=O)c1ccc(C(=O)Nc2ccc3nc(C)sc3c2)cc1 | 51.1 µM | 99.8 µM |
| C/C(CC(=O)Nc1ccc(Cl)cc1C(F)(F)F)=N\NC(N)=S | 15.9 µM | 20.1 µM |
| COC(=O)c1cc(=O)n(-c2ccc(F)cc2)c(=Nc2ccc(F)cc2)s1 | 0.46 µM | 1.24 µM |
| CC(=O)Nc1sc2c(c1-c1nc3ccccc3s1)CCN(C(C)C)C2 | 8.64 µM | 11.2 µM |
| O=[N+]([O-])c1cn(-c2nc(-c3ccco3)cc(C(F)(F)F)n2)cn1 | 3.79 µM | > 100 µM |
| COc1cccc(-c2cnc(NCc3cc(Cl)ccc3O)n2C)c1 | 21.1 µM | 23.4 µM |

| SMILES | IC50 | IC90 |
| --- | --- | --- |
| C=CCNCC(=O)N1N=C(c2ccc3ccccc3c2)CC1c1ccc(OC)cc1 (stereo not drawn) | 18.4 µM | 23.3 µM |
| CC1=NN(C(=O)c2ccc(Br)cc2)C(O)(c2ccccc2)C1 (stereo not drawn) | 42.3 µM | 52.6 µM |
| CSCCOC(=O)COc1ccc(/C=N/NC(=O)c2c(Cl)cnn2C)cc1 | 19.6 µM | 37.7 µM |
| Cc1ccc2c(c1)c1ncnc(N3CCc4ccccc4C3)c1n2C | 73.8 µM | > 100 µM |
| O=C(CSc1ncnc2nc[nH]c12)c1ccc(Cl)cc1 | 19.1 µM | 25.4 µM |
| COC(=O)C(C)Oc1ccc2c(c1)O/C(=C\c1ccco1)C2=O (stereo not drawn) | 11.3 µM | 17.2 µM |
| Cc1ccc(C(=O)N/C(=C/c2ccco2)C(=O)OCN2C(=O)c3ccccc3C2=O)cc1 | 16.3 µM | 40.4 µM |
| CSc1ccc(C(=O)C2CCCN(C(=O)c3ccc4c(c3)no[n+]4[O-])C2)cc1 (stereo not drawn) | 1.65 µM | 2.53 µM |
| COc1ccc(C[C@H]2CN3C(=NC[C@H]3Cc3ccccc3)N2CCNC(=O)CCC2CCCCC2)cc1 | 22.4 µM | 24.3 µM |
| CCCn1nnc(NC(=O)COc2ccc(CC)cc2)n1 | 48.4 µM | > 100 µM |
| O=[N+]([O-])c1cc(-c2ncccn2)c([N+](=O)[O-])s1 | 33.1 µM | 38.8 µM |
| Cc1cc(C)n2nc(/C(C#N)=C/c3ccccn3)c(C#N)c2n1 | 19.4 µM | 35.5 µM |
| Cc1ccc(-c2ccnc(=S)[nH]2)cc1 | 55.9 µM | > 100 µM |
| Cn1c(CNc2nc(-c3ccccc3)cs2)nnc1SCC(=O)OC1CCCCC1 | 24 µM | 27.3 µM |
| c1ccc(-c2cn3c(n2)CCc2ccc4cccnc4c2-3)cc1 | 22.4 µM | 25.4 µM |
| CC1CCc2c(sc3ncnc(NCCCOC(C)C)c23)C1 (stereo not drawn) | 59.3 µM | 74.2 µM |
| CCOC(=O)c1ccc(-n2c(CCC(=O)O)ccc2-c2cccs2)cc1 | 20.8 µM | 23.6 µM |
| COC(=O)CC(=O)N1CCN(c2ccc(Cl)c(Cl)c2)CC1 | 44.4 µM | 74.8 µM |
| CCC[C@@H]1C[C@@H](C(=O)NC(C(C)Cl)[C@H]2O[C@H](SC)[C@H](O)[C@@H](O)[C@H]2O)N(C)C1 (stereo partly drawn) | 3.91 µM | 11.5 µM |
| Cn1c(=O)n(Cc2ccccc2)c(=O)c2c1nc1n2CCCN1C1CCCCC1 |  | > 100 µM |
